Source: EP4624457A1, “I[…] DERIVATIVES, I[…] NEURODEGENERATIVE DISEASES” (Centre National de la Recherche Scientifique, priority 2024, dated 2025)
Read-outs that look alike come from different tables or passages of the source.

Key:
Assay in all cases: Cell viability / proliferation assay (CellTiter Glo luminescence, 72 h)
Assay type in all cases: cell-based
[1] = system: U87-MG glioblastoma cells; settings: for IC50: 72 h incubation, mean ± SEM from three distinct experiments
Protocol: (§1) • Figure 1 represents the chemical structure of ingrilimine according to compound (Illa) formula. • Figure 2 represents the cytotoxic activity of ingrilimine. A2780 ovarian and HT29 colorectal carcinoma cells were grown in RPMI 1640 supplemented with 10% fetal calf serum (FCS) and 1% glutamine. U87-MG glioblastoma cells were grown in Dulbecco minimal essential medium containing 4.5 g/L glucose, 10% FCS and 1% glutamine at 37 °C in a humidified atmosphere containing 5% CO2. For IC50 determination, the cells were seeded in 96-well plates (3 × 10^3 cells/well) containing 90 µL of growth medium. After 24 h of culture, the cells were treated with ingrilimine at 10 different final concentrations. Cell viability was determined by luminescence after 72 h incubation. (a) Effect of ingrilimine on A2780 ovarian carcinoma cells. (b) Effect of ingrilimine on U87-MG glioblastoma cells. (c) Effect of ingrilimine on U87-MG glioblastoma cells • Figure 3a-3f represent the mitochondrial dysfunction provoked by ingrilimine. HCT116 cells were treated with ingrilimine in the range of […] for 24h and 48h. Sector Q normal cells that accumulated the JC-1 dye (fluorescence emission 590 nm). […] (a) Non-treated cells incubated with the carrier (DMSO) for 24 h. (b) HCT116 cells incubated with […] ingrilimine for 24 h. (c) HCT116 cells incubated with 250 nM ingrilimine for 24 h. (d) Non-treated cells incubated with the carrier (DMSO) for 48 h. (e) HCT116 cells incubated with […] ingrilimine for 48 h. (f) HCT116 cells incubated with 250 nM ingrilimine for 48. Changes in fluorescence emission were recorded by flow cytometry using the JC-1 mithocondrial membrane potential-dependent fluorescent dye. NT = non-treated cells; IngX = ingrilimine. • Figure 4a-4f represents phosphatidylserine exposure provoked by ingrilimine. A2780 cancer cells were incubated with ingrilimine in the range of 10-500 nM before staining with FITC-Annexin V and propidium iodide. Quadrants D1 and D2 with dead or necrotic cells, quadrant D3 with normal cells and quadrant D4 with apoptotic cells following phosphatidylserine exposure. (a) Non-treated A2780 cells incubated with the carrier (DMSO) for 24h. (b) A2780 cells incubated with 10 nM ingrilimine for 24 h. (c) A2780 cells incubated with 250 nM ingrilimine for 24 h. (d) Non-treated A2780 cells incubated with the carrier (DMSO) for 48 h. (e) A2780 cells incubated with 10 nM ingrilimine for 48 h. (f) A2780 cells incubated with 250 nM ingrilimine for 48. […] exposure in A2780 cell was quantified by flow cytometry using FITC-Annexin V. Dead or necrotic cells were detected using the vital dye propridium iodide. NT = non-treated cells; IngX = ingrilimine. • Figure 5 represents the antagonistic activity of ingrilimine (named "IngX" in the figure) and portimine (named "Port A" in the figure) against nicotinic acetylcholine receptors recorded by two-electrodes voltage clamp electrophysiology on Xenopus laevis oocytes. Clamped Xenopus laevis oocytes having incorporated the muscle (α1)2βγδ nAChR subtype from Torpedo marmorata (filled squares), or expressing the neuronal α3β2 nAChR subtype from rat (filled triangles), or expressing the human neuronal α7 nAChR subtype (filled circles) were exposed to portimine (100 nM - 1 mM) for 45 seconds. […] A Xenopus laevis oocyte expressing the human α7 nAChR subtype was exposed to 100 µM acetylcholine triggering the immediate opening of the receptor's channel (black bold line) followed by the very-fast closure of the channel ([…]) that became insensitive to acetylcholine during the rest of the 5 seconds exposure (desensitization). When a Xenopus laevis oocyte expressing the human α7 nAChR subtype was exposed first to 10 nM ingrilimine for 45 seconds and then to a mixture (Mix) containing 10 nM ingrilimine and 100 µM acetylcholine, the receptor's channel was closed denoting a strong antagonistic activity of the tested toxin against the α7 nAChR subtype (dotted line). […]

[2] = system: HT29 colorectal carcinoma cells; settings: for IC50: 72 h incubation, mean ± SEM from three distinct experiments
Protocol: as §1

[3] = system: A2780 ovarian carcinoma cells
Protocol: as §1

With C=CC1=C[C@@H]2C[C@@H](O)[C@@H](O)/C(C)=C/C/C(C)=C/CCC3=NCCC[C@]32CC1 [Ingrilimine, ingrilimine] as the compound, how does the IC50 ([1]; Homo sapiens, U-87 MG) read?
The IC50 was 44.2 ± 0.3 nM.

And the “cytotoxic activity, times less potent compared to portimine-A” value ([1]; U87-MG, ratio of IC50)?
Its value is 5 times.

What about the “cytotoxic activity, times less potent compared to portimine-A” value ([2]; HT29, ratio of IC50) of the same compound?
Its value is 5 times.

And the IC50 ([2]; Homo sapiens, HT-29)?
Its IC50 is 34.3 ± 1.1 nM.

And the IC50 ([3]; Homo sapiens, A2780, 72 h incubation, mean ± SEM from three distinct experiments, read-out: IC50 ± SEM (nM) A2780)?
The IC50 was 10.6 ± 0.2 nM.

What about the IC50 ([3]; Homo sapiens, A2780, HT29 and U87-MG together, read-out: IC50 values, range over the three cancer cell lines tested) of the same compound?
Its IC50 is 10 to 45 nM.

And the “times less potent than portimine-A to kill the A2780 ovarian cancer cells” value ([3]; ratio of IC50)?
Its value is 13 times.

How did the IC50 [1] turn out when C=CC1=C[C@@H]2[C@@H]3O[C@]4(CC[C@H](O4)[C@@H](C)C[C@@H](O)C3=O)C[C@H](O)C3=NCC[C@@]32CC1 [Portimine-A] was run?
Its IC50 is 8.1 ± 7.8 nM.

What about the IC50 [2] of the same compound?
The IC50 was 6.4 ± 0.1 nM.

And the IC50 ([3]; 72 h incubation, mean ± SEM from three distinct experiments, read-out: IC50 ± SEM (nM) A2780)?
The IC50 was 0.77 ± 0.1 nM.
